Measured values published in ChEMBL document CHEMBL1151882, “Carbonic anhydrase inhibitors. Inhibition of the fungal beta-carbonic anhydrases from Candida albicans and Cryptococcus neoformans with boronic acids” (Bioorg Med Chem Lett, 2009).
pKi: −log10 of the molar value.

Key:
Carbonic anhydrase = molecular target: T1, Carbonic anhydrase (Candida albicans (strain SC5314 / ATCC MYA-2876) (Yeast), UniProt Q5AJ71)
T1 sequence (Q5AJ71 whole entry): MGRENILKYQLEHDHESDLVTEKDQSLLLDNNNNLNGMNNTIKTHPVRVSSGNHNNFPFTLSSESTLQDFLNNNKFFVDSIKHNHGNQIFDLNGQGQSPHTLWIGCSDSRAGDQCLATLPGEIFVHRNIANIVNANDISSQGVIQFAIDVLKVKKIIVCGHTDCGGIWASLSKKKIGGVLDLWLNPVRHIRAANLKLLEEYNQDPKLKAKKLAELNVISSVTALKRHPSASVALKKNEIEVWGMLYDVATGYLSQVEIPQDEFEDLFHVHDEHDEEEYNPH

Carbonic anhydrase 1 = Carbonic anhydrase 1 (Homo sapiens, UniProt P00915)
Carbonic anhydrase 1, sequence (P00915 whole entry): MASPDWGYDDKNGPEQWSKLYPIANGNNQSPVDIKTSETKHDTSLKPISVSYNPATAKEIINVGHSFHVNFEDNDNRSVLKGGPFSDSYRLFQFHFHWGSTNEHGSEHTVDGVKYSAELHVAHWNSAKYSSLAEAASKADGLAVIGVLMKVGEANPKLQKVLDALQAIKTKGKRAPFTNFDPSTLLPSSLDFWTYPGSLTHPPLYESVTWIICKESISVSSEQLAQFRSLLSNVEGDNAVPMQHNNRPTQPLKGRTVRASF

Carbonic anhydrase 2 = Carbonic anhydrase 2 (Homo sapiens, UniProt P00918)

| Structure (SMILES) | pKi (Carbonic anhydrase) | pKi (Carbonic anhydrase 1) | pKi (Carbonic anhydrase 2) |
| --- | --- | --- | --- |
| OB(O)/C=C/Cc1ccccc1 | 3.20 | 5.07 | 4.74 |
| OB(O)/C=C/c1ccc(-c2ccccc2)cc1 | 4.37 | – | 3.43 |
| COc1ccc(B(O)O)cc1 | 4.81 | 4.96 | 5.10 |
| OB(O)c1ccc(Oc2ccccc2)cc1 | 5.07 | 5.22 | 4.94 |
| CCCCc1ccc(B(O)O)cc1 | 5.10 | – | – |
| OB(O)c1ccc2ccccc2c1 | 5.03 | – | – |
| OB(O)/C=C/c1ccc(-c2ccc(C(F)(F)F)cc2)cc1 | 2.28 | – | – |
| OB(O)c1ccc(-c2ccccc2)cc1 [BIPHENYLBORONIC ACID] | 5.11 | – | – |
| OB(O)c1ccccc1 [PHENYLBORONIC ACID] | – | 2.81 | 2.98 |
| Cc1ccc(B(O)O)cc1 [TOLYL BORONIC ACID] | 5.05 | 3.56 | 4.97 |
| OB(O)/C=C/c1ccccc1 [STYRYLBORONIC ACID] | 3.11 | – | 3.27 |
| Cc1ccc(/C=C/B(O)O)cc1 | 3.34 | – | 3.21 |
| OB(O)c1ccc(Br)cc1 | 4.80 | 4.93 | 5.15 |
